Measurements taken from US20050245600A1, “Novel antimalarial agent” (Osaka Bioscience Institute, priority 2002, published 2005).
≈ marks a conversion by molar mass, not a printed value. Where two headings read alike, the source gives them in different places.

Experiments:
[1] = system: FCR3 strain (resistant to cycloguanyl) of Plasmodium falciparum; test: Plasmodium falciparum growth inhibition (Giemsa smear count, 48 hours); assay type: cell-based; settings: for IC50: Table 3, read-out: P. falciparum (IC50, μg/mL)
Experimental: FCR3 strain (resistant to cycloguanyl) of Plasmodium falciparum isolated in Gambia was used in the experiment to assess anti-malarial activity. Plasmodium falciparum synchronized to a ring phase by sorbitol treatment was injected in 50 μL 96 well plate. The hematocrit value of the culture liquid is 2% and the infection ratio was 0.55%. A substance to be tested was dissolved in DMSO and diluted with medium to an appropriate concentration before 50 μL of a test compound solution was added to the above 96 well plate to the total volume of 100 μL. The final concentration of DMSO added was 1%. Subsequently, after incubation was effected at 37° C. for 48 hours, a sumea film prepared on a slide glass was stained with Giemsa solution. The number of infected erythrocyte among 1000 erythrocytes was counted under an optical microscope. Percent inhibition of malaria parasite growth was calculated for percent infection obtained under the presence of DMSO only and that under the presence of the compound to be tested. Quinine was used as a positive control.

human cancer cell KB3-1 = test: KB3-1 cell growth inhibition (MTT) to examine toxicity; assay type: cell-based; settings: for IC50: Table 3, read-out: KB3-1 (IC50, μg/mL); for Selective toxicity: IC50 (KB3-1)/IC50 (P. falciparum)
Experimental: To 100 μL (2×10^4/ml) of floating liquid of KB3-1 cells, 100 μL of test compound containing a liquid which was prepared by dissolving a test compound in DMSO and diluted to an appropriate concentration (final concentration of DMSO: 1%) was added. The mixture was incubated under 5% CO2 at 37° C. After 72 hours incubation, 25 μL of MTT reagent was added and incubation was effected for 3 hours before only medium was aspiratedly removed. To the medium 200 μL of DMSO was added, the resulting MTT folmazan was extracted and the amount of the dye was quantitatively measured by a calorimetric method (540 nm). The number of survival cell was counted from the amount of formed dye, and percent growth inhibition was determined to assess the toxic activity. Mitomycin C was used as a positive control.

[2] = system: Plasmodium berghei (NK65 line); test: In vivo antimalarial activity, four days inhibition effect in infected mouse; settings: ICR mouse; for Inhibition (%) / Averaged parasite blood (%): fourth day; for Averaged parasite blood (%): average ± SD of 5 mice
Experimental: Four weeks old male mouse was bred at 25° C. under the condition of 12 hours light and 12 hours dark, and used in the assay.
Blood was corrected with a syringe from the heart of a donor mouse with 15 % of parasitaemia. To this blood, trisodium citrate aqueous solution was added in one seventh by volume to prevent coagulation of blood. The resulting solution was diluted with 0.9% aqueous sodium chloride solution so that the final concentration of infected blood cells is 1×10^7 per 0.2 ml. […]
To mouse (one group: 5), 0.2 ml of the infected erythrocytes was administered through tail vein. After 2 hours, the CMC solution (0.2 ml) of the respective concentration prepared above was orally administered. Starting with this time as 0 day, the solution was administered every day till a third day and infection ratio was examined on a fourth day. The infection ratio was determined by collecting blood from mouse tail, preparing smear, and counting infected erythrocytes using a microscope. The infection ratio of control mouse (5 infected mice administered only by the 0.5% CMC solution) was about 28% on the fourth day.
Percent growth inhibition of parasites by test compound was calculated from the following formula: Percent growth inhibition of parasites=(1−averaged infection ratio of mice treated with test compound/averaged infection ratio of control mice)×100
Life prolonging effect by test compound (T/C) was calculated from the following equation. Life Prolonging Effect (T/C)=averaged number of subsistence days of mouse treated by test compound/averaged number of subsistence days of control mouse

[3] = 25 mg/kg oral, day 0 to third day
[4] = 50 mg/kg oral, day 0 to third day
[5] = 100 mg/kg oral, day 0 to third day
[6] = 200 mg/kg oral, day 0 to third day

Q: Which results are given for `O=C1C[C@@H](c2ccc(O)cc2)Oc2c1c(O)cc(O)c2[C@H]1C(=O)c2c(O)cc(O)cc2O[C@@H]1c1ccc(O)cc1` [GK-1, 2S,3R,2′S-5,7,5′,7′-tetrahydroxy-2,2′-bis-(4-hydroxyphenyl)-2,3,2′,3′-tetrahydoro-[3,8′]bichromenyl-4,4′-dione]?
A: IC50 [1]: 0.35 µg/mL (≈ 0.645 µM); IC50 (human cancer cell KB3-1; Homo sapiens, KB 3-1): 27 µg/mL (≈ 49.8 µM); Selective toxicity (human cancer cell KB3-1): 77

Q: With `O=C1c2c(O)cc(O)c([C@@H]3C(=O)c4c(O)cc(O)cc4O[C@H]3c3ccc(O)cc3)c2O[C@H](c2ccc(O)cc2)[C@H]1O` [GK-4, 2R,3S,2′S,3′R-5,7,3′,5′,7′-pentahydroxy-2,2′-bis-(4-hydroxyphenyl)-2,3,2′,3′-tetrahydro-[3,8′]bichromenyl-4,4′-dione] as the compound, how does the IC50 [1] read?
A: The IC50 was 1.1 µg/mL (≈ 1.97 µM).

Q: And the IC50 (human cancer cell KB3-1; Homo sapiens, KB 3-1)?
A: Its IC50 is over 100 µg/mL.

Q: And the Selective toxicity (human cancer cell KB3-1)?
A: Its Selective toxicity is over 91.

Q: With `C[C@@H]1CC[C@H]2[C@@H](C)C(=O)O[C@@H]3O[C@@]4(C)CC[C@@H]1[C@]32OO4` [artemisinin, reference compound] as the compound, how does the Averaged subsistence days ([2]; 15 mg/kg) read?
A: The Averaged subsistence days was 10.3 ± 2.3 days.

Q: And the “T/C (life prolonging effect)” value ([2]; 15 mg/kg)?
A: The value was 129.

Q: What about the “Inhibition (%)” value ([2]; 15 mg/kg) of the same compound?
A: The value was 54%.

Q: What about the “Averaged parasite blood (%)” value ([2]; 15 mg/kg) of the same compound?
A: The value was 13.3 ± 1.6%.

Q: `O=C1c2c(O)cc(O)cc2O[C@H](c2ccc(O)cc2)[C@H]1c1c(O)cc(O)c2c1O[C@H](c1ccc(O)cc1)[C@@H](O)C2=O` [GK-2, 2S,3R,2′S,3′R-5,7,3′,5′,7′-pentahydroxy-2,2′-bis-(4-hydroxyphenyl)-2,3,2′,3′-tetrahydro-[3,8′]bichromenyl-4,4′-dione] was tested. Which inhibition at 0.5 µg/mL ([1]; Table 2, 0.5 μg/mL, read-out: Inhibition of P. falciparum %) did it give?
A: Its inhibition at 0.5 µg/mL is 70%.

Q: What about the inhibition at 5 µg/mL ([1]; Table 2, 5 μg/mL, read-out: Inhibition of P. falciparum %) of the same compound?
A: Its inhibition at 5 µg/mL is 65%.

Q: What about the IC50 [1] of the same compound?
A: The IC50 was 0.09 µg/mL (≈ 0.161 µM).

Q: What about the inhibition at 5 µg/mL (human cancer cell KB3-1; Homo sapiens, KB 3-1, Table 2, 5 μg/mL) of the same compound?
A: Its inhibition at 5 µg/mL is 22%.

Q: And the inhibition at 50 µg/mL (human cancer cell KB3-1; Homo sapiens, KB 3-1, Table 2, 50 μg/mL)?
A: Its inhibition at 50 µg/mL is 10%.

Q: What about the IC50 (human cancer cell KB3-1; Homo sapiens, KB 3-1) of the same compound?
A: The IC50 was over 100 µg/mL.

Q: And the Selective toxicity (human cancer cell KB3-1)?
A: The Selective toxicity was over 1100.

Q: What about the Averaged subsistence days [2, 3] of the same compound?
A: The Averaged subsistence days was 9.5 ± 1.7 days.

Q: And the “T/C (life prolonging effect)” value [2, 3]?
A: The value was 119.

Q: What about the “Inhibition (%)” value [2, 3] of the same compound?
A: Its value is 40%.

Q: What about the “Averaged parasite blood (%)” value [2, 3] of the same compound?
A: Its value is 17.3 ± 3.4%.

Q: And the Averaged subsistence days [2, 4]?
A: Its Averaged subsistence days is 10.0 ± 0.0 days.

Q: And the “T/C (life prolonging effect)” value [2, 4]?
A: Its value is 125.

Q: What about the “Inhibition (%)” value [2, 4] of the same compound?
A: Its value is 43%.

Q: What about the “Averaged parasite blood (%)” value [2, 4] of the same compound?
A: The value was 16.6 ± 2.4%.

Q: And the Averaged subsistence days [2, 5]?
A: Its Averaged subsistence days is 10.0 ± 0.0 days.

Q: And the “T/C (life prolonging effect)” value [2, 5]?
A: Its value is 125.

Q: And the “Inhibition (%)” value [2, 5]?
A: The value was 52%.

Q: And the “Averaged parasite blood (%)” value [2, 5]?
A: Its value is 13.9 ± 2.4%.

Q: And the Averaged subsistence days [2, 6]?
A: Its Averaged subsistence days is 11.0 ± 0.7 days.

Q: What about the “T/C (life prolonging effect)” value [2, 6] of the same compound?
A: Its value is 134.

Q: And the “Inhibition (%)” value [2, 6]?
A: Its value is 60%.

Q: What about the “Averaged parasite blood (%)” value [2, 6] of the same compound?
A: Its value is 11.5 ± 1.2%.

Q: With `O=C1c2c(O)cc(O)cc2O[C@H](c2ccc(O)cc2)[C@H]1c1c(O)cc(O)c2c1O[C@H](c1ccc(O)c(O)c1)[C@@H](O)C2=O` [GK-3, 2S,3R,2′S,3′R-2′-(3,4-dihydroxyphenyl)-5,7,3′,5′,7′-pentahydroxy-2-(4-hydroxyphenyl)-2,3,2′,3′-tetrahydro-[3,8′]bichromenyl-4,4′-dione] as the compound, how does the IC50 [1] read?
A: Its IC50 is 0.12 µg/mL (≈ 0.209 µM).

Q: What about the IC50 (human cancer cell KB3-1; Homo sapiens, KB 3-1) of the same compound?
A: Its IC50 is over 100 µg/mL.

Q: And the Selective toxicity (human cancer cell KB3-1)?
A: Its Selective toxicity is over 830.

Q: For `C=C[C@H]1C[N@@]2CC[C@H]1C[C@H]2[C@H](O)c1ccnc2ccc(OC)cc12` [quinine, reference compound], which inhibition at 0.033 µg/mL ([1]; Table 1 control, 33 ng/mL, read-out: P. falciparum Growth Inhibition (%)) is on record?
A: The inhibition at 0.033 µg/mL was 73%.

Q: And the inhibition at 0.1 µg/mL ([1]; Table 1 control, 100 ng/mL, read-out: P. falciparum Growth Inhibition (%))?
A: Its inhibition at 0.1 µg/mL is 90%.

Q: What about the inhibition at 0.033 µg/mL ([1]; Table 2 control, 0.033 μg/mL, read-out: Inhibition of P. falciparum %) of the same compound?
A: The inhibition at 0.033 µg/mL was 62%.

Q: What about the inhibition at 0.1 µg/mL ([1]; Table 2 control, 0.1 μg/mL, read-out: Inhibition of P. falciparum %) of the same compound?
A: The inhibition at 0.1 µg/mL was 90%.

Q: What about the inhibition at 0.033 µg/mL ([1]; Table 3 control, 0.033 μg/mL, read-out: P. falciparum inhibition) of the same compound?
A: Its inhibition at 0.033 µg/mL is 36%.

Q: What about the inhibition at 0.1 µg/mL ([1]; Table 3 control, 0.1 μg/mL, read-out: P. falciparum inhibition) of the same compound?
A: The inhibition at 0.1 µg/mL was 82%.
